# Legend:
# LN18-eGFP clusters = assay: 5-ALA staining of GBM(LN18-eGFP)/brain co-cultures; type: cell-based, human; settings: 100 μg/ml, 24 hours
# Text: 5-aminolevulinic acid (5-ALA) can be used to visualize tumourous tissue during neurosurgical procedures. The intraoperative use of this guiding method may reduce the tumour residual volume and prolong progression-free survival in patients suffering from brain tumours. GBM(LN18-eGFP)/brain co-cultures as prepared in Example 4 were stained with 5-ALA to see whether, as in human tumours, 5-ALA could specifically stain the tumour cells.
# Aminolevulinic acid hydrochloride (ALA) (Sigma product number A3785) was solubilised in water to 10 mg/ml. For incubation with the cultures, it was diluted in the medium in the well to give a final concentration of 100 μg/ml and incubated with the cultures for 24 hours. The cultures were then examined microscopically using the CARV confocal system described for immunohistological analysis.
# LN-18 cells [1] = assay: 3D organotypic co-culture of LN-18-GFP tumour cells in rat brain cell matrix, treated at seeding; type: cell-based, human
# Description: (§1) Human glioblastoma tumour cell lines, LN-18 (ATCC #CRL2610) were cultured and were transfected with either green fluorescent protein (GFP) expressing plasmids or red fluorescent protein (RFP) expressing plasmids. Cells were cultured and plated onto 6 well plates, at 1×10^5 cells per well, grown overnight and checked to see ˜75% confluence. The cells were transfected with pEGFP-N3 (BD Biosciences cat no #6080-1) using Gene Juice (Novagen cat no #70967-EA) as per manufacturer's protocols. 24 hours after transfection, the cells were selected with Geneticin (GIBCO cat no #10131-019), a population of selected cells were used in the experiments. A population of selected cells were cultured over prolonged periods of time with occasional selection to maintain a population of transfected cells. The expression of fluorescent proteins by the tumour cells allows monitoring of the tumour cells for proliferation and morphological changes. The transfected tumour cells (LN-18) were treated with trypsin/EDTA (sigma#T4299) to remove them from the flask, resuspended in culture media, The viable cells were counted using trypan blue exclusion The suspension was centrifuged at 1000 rpm/3 minutes and the resultant cell pellet resuspended to 50,000 cells/μl.
# The organotypic cultures were produced by preparing dissociated cells from isolated rat cortex. P0 Wistar rats were sacrificed and the brains removed. The cortices were dissected into a Petri dish and chopped into small pieces and put into cold EBSS (GIBCO cat no #24010). The tissue pieces were then triturated very gently. The resultant cell suspension was filtered through a 100 μm mesh filter fitting into a 50 ml falcon tube. The suspension was centrifuged at 1000 rpm/3 minutes. The viable cells were counted using Trypan blue exclusion and the cell pellet resuspended to 50,000 cells/μl.
# The transfected tumour cells and the rat primary cells prepared as explained in Examples 1 and 2 were mixed together to form a suspension of cells at 50,000 cells/μl.
# 5 μL of this mixed cell suspension was added to the top of a 0.4 micron Millipore culture insert (Millipore cat no # PICM0350) placed in lml cortical media (10% Hams F12, 20% FCS, 5% horse serum, 10 mM Hepes, 2 mM glutamine in DMEM) in a 6 well plate (NUNC). The plate was then incubated at 37° C. with 5% CO2 (FIG. 1A). During the first hours of this incubation the cells compact to form a denser culture by the removal of the liquid from the 5 μl cell suspension through capillary action via the semi-permeable membrane support (FIG. 1A).
# Using these optimisation experiments the cells were mixed in the proportions of 95% rat brain cells and 5% LN-18 tumour cells both resuspended at 50,000 cells per μl.
# (§2) Organotypic co-cultures were prepared as previously described. 2 hours after preparation, TMZ was added into the culture medium at various concentrations—see FIG. 6. The cultures are incubated in the culture medium+TMZ for up to 14 days with the compound being renewed as the media was changed. This allowed for monitoring of the effect of the TMZ over time.
# (§3) For the monolayer cultures of tumour cells alone (2D) LN-18_GFP cells were plated into 24 well plates at a concentration of 10^4 cells per well and after 2 hours treated with the same concentrations of TMZ as the organotypic co-cultures. Control organotypic co-cultures and 2D cultures were also monitored to compare normal growth of the tumour cells with that after addition of the TMZ. For analysis of fluorescence, images were taken on a Leica DM1L microscope using Leica application suite software. The images collected were analyzed using the BD IPLAB imaging software and the data analysed using Graphpad Prism5 software. The error bars are the standard error of the mean (SEM). 24 images were used for each data point.
# LN-18 cells [2] = assay: 2D monolayer culture of LN-18-GFP tumour cells alone, fluorescence growth readout; type: cell-based, human; settings: for IC50: Homo sapiens, LN-18, 2D culture, growth inhibition
# Description: as §1, §3
# GL-15 [3] = assay: 2D culture of GL-15 glioblastoma cells, growth inhibition; type: cell-based; settings: GL-15, 2D culture
# Description: as §3
# (§4) Similarly to what has been observed with LN-18 cells, efficacy of Temozolomide was increased from 2.5 to 12 fold in brain-co-cultures. Thus, the co-cultures of the invention reflect the clinical situation more closely than 2D cultures for various glioblastoma cell lines.
# GL-15 [4] = assay: 3D co-culture of GL-15 glioblastoma cells with brain cell matrix, growth inhibition; type: cell-based; settings: GL-15, 3D co-culture with brain cell matrix
# Description: (§5) Each of these cell lines was eGFP-labeled and mixed with rat brain cells to form 3D organotypic co-cultures. As indicated by the eGFP signal, all brain-derived tumour cell lines grew and formed clusters of tumour cells within the co-cultures (FIGS. 3B, C and D) in a very similar way as LN18 cells.
# as §2, §4
# U87 [5] = assay: 3D co-culture of U87 glioblastoma cells with brain cell matrix, growth inhibition; type: cell-based; settings: Homo sapiens, U-87 MG, U87, 3D co-culture with brain cell matrix
# Description: as §5, §2, §4
# A172 [6] = assay: 3D co-culture of A172 glioblastoma cells with brain cell matrix, growth inhibition; type: cell-based; settings: Homo sapiens, A172, 3D co-culture with brain cell matrix
# Description: as §5, §2, §4
# A172 [7] = assay: 2D culture of A172 glioblastoma cells, growth inhibition; type: cell-based; settings: Homo sapiens, A172, 2D culture
# Description: as §3, §4
# U87 [8] = assay: 2D culture of U87 glioblastoma cells, growth inhibition; type: cell-based; settings: Homo sapiens, U-87 MG; U87, 2D culture; read-out: IC50 TMZ 2D
# [9] = tested on: established glioblastoma tumour cell clusters in GBM/brain co-cultures; assay: Tumour regression in established GBM/brain co-cultures, treatment started three days after seeding; type: cell-based
# Text: Chemotherapies are given to patients with established tumours and are poorly effective.
# Thus, also in terms of tumour regression, the properties of the co-cultures of the invention are representative of the clinical situation.
smiles,measurement,setting,value
"NCC(=O)CCC(=O)O [5-ALA, 5-aminolevulinic acid]",staining of tumour cell clusters,LN18-eGFP clusters; clusters of more than about 100 μm in diameter,strong specific 5-ALA staining
same,staining of tumour cell clusters,LN18-eGFP clusters; clusters smaller than about 100 μm in diameter,stained more weakly
"Nc1ccn([C@@H]2O[C@H](CO)[C@@H](O)[C@@H]2O)c(=O)n1 [Ara-C, Cytosine arabinoside]",dose needed in 3D co-cultures relative to dose necessary in 2D cultures,LN-18 cells [1]; 3D versus 2D,ten times
same,concentration required to reduce tumour cell proliferation,LN-18 cells [1]; GBM/Brain co-cultures (3D),1 µM
same,effect on GBM cells,"LN-18 cells [1]; GBM/Brain co-cultures (3D), 10 μM",effectively killed
same,concentration showing growth inhibition (anti-proliferative activity),LN-18 cells [2]; 2D cultures,100 nM
"Cn1nnc2c(C(N)=O)ncn2c1=O [TMZ, Temozolomide]",IC50,GL-15 [3]; read-out: IC50 TMZ 2D,> 50000 nM
same,IC50,GL-15 [4]; read-out: IC50 TMZ 3D,~20000 nM
same,IC50,"LN-18 cells [1]; Homo sapiens, LN-18, LN-18, 3D co-culture with rat brain cells, growth inhibition, read-out: IC50 TMZ 3D",< 5000 nM
same,IC50,"LN-18 cells [1]; LN-18, 3D co-culture with rat brain cells, growth inhibition, read-out: IC50 TMZ 3D",~4000 nM
same,IC50,LN-18 cells [2]; read-out: IC50 TMZ 2D,> 10000 nM
same,IC50,U87 [5]; read-out: IC50 TMZ 3D,~1000 nM
same,IC50,"A172 [6]; A 172, read-out: IC50 TMZ 3D",~5000 nM
same,IC50,"A172 [7]; A 172, read-out: IC50 TMZ 2D",~25000 nM
same,IC50,U87 [8],~12000 nM
"CC(=O)O[C@H]1C(=O)[C@@]2(C)[C@H]([C@H](OC(=O)c3ccccc3)[C@]3(O)C[C@H](OC(=O)[C@H](O)[C@@H](NC(=O)c4ccccc4)c4ccccc4)C(C)=C1C3(C)C)[C@]1(OC(C)=O)CO[C@@H]1C[C@@H]2O [Taxol, Paclitaxel]",IC50,GL-15 [3]; read-out: IC50 Taxol 2D,~4 nM
same,IC50,GL-15 [4]; read-out: IC50 Taxol 3D,100 nM
same,effect on tumour cell growth,"LN-18 cells [1]; 3D, taxol 25 nM, treatment started at seeding",cell growth was stopped
same,effect on cell growth versus control cultures (average % fluorescence),"LN-18 cells [1]; 3D, taxol 25, 50 and 100 nM",significant reduction in cell growth
same,concentration required to achieve tumour clusters shrinkage,"LN-18 cells [1]; 3D, treatment started at seeding",100 nM
same,IC50,"LN-18 cells [1]; Homo sapiens, LN-18, read-out: IC50 Taxol 3D, LN-18, 3D co-culture with rat brain cells, growth inhibition",~25 nM
same,effect on tumour cell number,"LN-18 cells [2]; 2D, Taxol 20 nM",reduction in cell number to almost zero
same,effect on tumour cell number (average % fluorescence),"LN-18 cells [2]; 2D, taxol 5 nM",small but significant reduction in cell number
same,effect on tumour cell number (average % fluorescence),"LN-18 cells [2]; 2D, taxol 20 and 50 nM",no increase in cell number
same,IC50,LN-18 cells [2]; read-out: IC50 Taxol 2D,~7 nM
same,IC50,U87 [5]; read-out: IC50 Taxol 3D,~60 nM
same,IC50,"A172 [6]; A 172, read-out: IC50 Taxol 3D",~50 nM
same,IC50,"A172 [7]; A 172, read-out: IC50 Taxol 2D",~7 nM
same,effect on fluorescence intensity of established tumour cell clusters,[9]; taxol 25 nM,no effect
same,effect on fluorescence intensity of established tumour cell clusters,[9]; taxol 100 nM and 50 nM,marginal effects

# Reference: patent publication US20140154735A1, “TUMOUR CELL AND TISSUE CULTURE” (CAPSANT NEUROTECHNOLOGIES LTD., priority 2011, published 2014)
